Earlier results in US20220071922A1, “DELIVERY OF HEALTH BENEFITS THROUGH COMPONENT FORMULATION” (Clear Lake Research, LLC, priority 2018, published 2022).

Experiments:
[1] = applied topically
[2] = phytocannabinoids interact with oxygen; without nitrogen overlay
[3] = target: CB2 receptors (Homo sapiens, UniProt P34972); settings: estimated; times the affinity of CBD
CB2 receptors, sequence (P34972 whole entry): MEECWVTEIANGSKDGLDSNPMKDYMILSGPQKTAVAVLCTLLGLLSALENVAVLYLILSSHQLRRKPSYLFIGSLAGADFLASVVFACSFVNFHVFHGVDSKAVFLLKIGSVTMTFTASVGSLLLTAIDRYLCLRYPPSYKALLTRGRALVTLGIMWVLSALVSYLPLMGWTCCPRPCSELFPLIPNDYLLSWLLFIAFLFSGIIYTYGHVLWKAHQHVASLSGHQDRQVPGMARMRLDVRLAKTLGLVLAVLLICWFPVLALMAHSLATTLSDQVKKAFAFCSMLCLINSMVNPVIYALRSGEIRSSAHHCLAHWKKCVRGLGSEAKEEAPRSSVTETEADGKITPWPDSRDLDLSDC

Structure (SMILES)	time to significant pain relief impact [1]	shelf life [2]	affinity relative to CBD [3]
C=C(C)[C@@H]1CCC(C)=C[C@H]1c1c(O)cc(CCCCC)cc1O [CBD, cannabidiol]	about 30 minutes	about six	
CCCCC/C=C\C/C=C\CCCCCCCC(=O)OC(CO)CO [2-Lineoleoyl-glycerol]			~1,000 times
CCCCCCCCCCCCCCCC(=O)OC(CO)CO [2-Palmitolyl-glycerol]			~1,000 times
